Patent publication US10988465B2, “CXCR4 inhibitors and uses thereof” (X4 Pharmaceuticals, Inc., priority 2016, dated 2021)

Key:
[1] = target: T1, CXCR-4 transfected U87 cell line (U87.CXCR4) (Homo sapiens, UniProt P61073); assay: Intracellular CXCL-12-induced calcium mobilization assay (FLIPR); format: cell-based; conditions: U87.CXCR4 cells; CXCL-12 25-50 ng/mL; compound added 15 min before; read-out: IC50 CXCL-12 Ca^2+ flux U87.CXCR4+
T1 construct: expressed in transfected cells; host or cells: U87 (U87.CXCR4)
Method: Example 36: REGA Screening Assay
Intracellular CXCL-12-Induced Calcium Mobilization Assay
Intracellular calcium mobilization induced by chemokines or chemokine-derived peptides were evaluated using a calcium responsive fluorescent probe and a FLIPR system. The CXCR-4 transfected U87 cell line (U87.CXCR4) cells were seeded in gelatine-coated black-wall 96-well plates at 20,000 cells per well and incubated for 12 hours. Cells were then loaded with the fluorescent calcium probe Fluo-2 acetoxymethyl at 4 μM final concentration in assay buffer (Hanks' balanced salt solution with 20 mM HEPES buffer and 0.2% bovine serum albumin, pH 7.4) for 45 min at 37° C. The intracellular calcium mobilization induced by the CXCL-12 (25-50 ng/mL) was then measured at 37° C. by monitoring the fluorescence as a function of time in all the wells simultaneously using a fluorometric imaging plate reader (FLIPR Tetra, Molecular Devices).

[2] = target: T2, Jurkat cells expressing CXCR4 (Homo sapiens, UniProt P61073); assay: Chemokine (CXCL12-AF647) binding inhibition assay; conditions: CXCL12-AF647 25 ng/mL, read-out: IC50 CXCL-12 binding Jurkat
T2 construct: endogenous in cells; host or cells: Jurkat
Method: Chemokine (CXCL12-AF647) Binding Inhibition Assay
Jurkat cells expressing CXCR4 were washed once with assay buffer (Hanks' balanced salt solution with 20 mM HEPES buffer and 0.2% bovine serum albumin, pH 7.4) and then incubated for 15 min at room temperature with the test compounds diluted in assay buffer at dose-dependent concentrations. Subsequently, CXCL12-AF647 (25 ng/mL) was added to the compound-incubated cells. The cells were incubated for 30 min at room temperature. Thereafter, the cells were washed twice in assay buffer, fixed in 1% paraformaldehyde in PBS, and analyzed on the FL4 channel of a FACSCalibur flow cytometer equipped with a 635-nm red diode laser (Becton Dickinson, San Jose, Calif., USA).
The percentages of inhibition of CXCL12-AF647 binding were calculated according to the formula: [1−((MFI−MFINC)/(MFIPC−MFINC))]×100 where MFI is the mean fluorescence intensity of the cells incubated with CXCL12-AF647 in the presence of the inhibitor, MFINC is the mean fluorescence intensity measured in the negative control (i.e., autofluorescence of unlabeled cells), and MFIPC is the mean fluorescence intensity of the positive control (i.e., cells exposed to CXCL12-AF647 alone).

in vitro = conditions: human, Caco-2, pH 7.4
Method: Example 37: Caco-2 Permeability Assay
The goal of this assay was to evaluate the intestinal absorption potential of drug candidates using Caco-2 cell lines.
HBSS buffer with 0.3% DMSO and 5 μM LY: add 150 μL DMSO and 50 μL LY (5 mM) into 50 ml HBSS buffer (pH 7.4).
HBSS buffer with 0.1% DMSO and 5 μM LY: add 50 μL DMSO and 50 μL LY (5 mM) into 50 mL HBSS buffer (pH 7.4).
HBSS buffer with 0.3% DMSO: add 150 μL DMSO into 50 ml HBSS buffer (pH 7.4).
HBSS buffer with 0.1% DMSO: add 50 μL DMSO into 50 ml HBSS buffer (pH 7.4).
Prepare HBSS buffer with 0.4% DMSO: add 200 μL DMSO into 50 ml HBSS buffer (pH 7.4).
Prepare HBSS buffer with 0.4% DMSO and 5 μM LY: add 200 μL DMSO and 50 μL LY (5 mM) into 50 ml HBSS buffer (pH 7.4).
4. Measure TEER Take cell culture plate out of incubator, wash the cell monolayers with HBSS buffer, and then measure TEER values at Rm temperature. 5. Centrifuge Centrifuge the compound solution (from step 3) at 4000 rpm for 5 min before loading to donor chambers. 6. Dosing Add solution based on the volumes listed in the following table (make sure to take extra 100 μL of donor sample for T0 as Backup).
7. Apical LYT0 samples To determine LY concentration in the apical chember, take 100 μL sample from apical chambers into an opaque plate for LYT0. 8. Prewarm Prewarm apical and basolateral plates at 37° C. for about 5 min, then begin transport by placing the apical plate onto basolateral plate. 9. Incubation Keep the plates in incubator at 37° C. for 90 min. 10. Standard Curve preparation
11. Transport termination Separate the apical plate from the basolateral plate after 90-min incubation.
Receiver sample: 60 μL of receiver sample+60 μL ACN with IS (Osalmid or Imipramine)
Study details: Test concentration 10 μM
Test systems: Caco-2/HBSS solution
Incubation conditions: 0, 90 min at 37° C.
Sample size: Duplicates (n=2)
Bioanalytical method: LC-MS/MS
For Millicell-24 Cell Culture Plates: surface area of the membrane=0.7 cm^2, VA=0.8 mL (A-to-B) or 0.4 mL (B-to-A)
1. Papp values were calculated based on calculated concentrations.
The compound numbers correspond to the compound numbers in Table 1.

T1 sequence (P61073 whole entry): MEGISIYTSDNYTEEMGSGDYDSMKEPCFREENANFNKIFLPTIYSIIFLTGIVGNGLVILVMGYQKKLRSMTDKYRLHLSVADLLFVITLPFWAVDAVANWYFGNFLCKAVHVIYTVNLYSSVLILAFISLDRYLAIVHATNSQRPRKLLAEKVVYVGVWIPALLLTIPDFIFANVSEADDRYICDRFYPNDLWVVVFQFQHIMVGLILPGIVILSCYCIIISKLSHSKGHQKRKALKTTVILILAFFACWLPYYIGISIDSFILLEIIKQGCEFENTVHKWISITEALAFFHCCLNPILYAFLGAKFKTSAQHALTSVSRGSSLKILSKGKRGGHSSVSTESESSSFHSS
T2 sequence (P61073 whole entry): as above

Row | Compound | IC50 [1] | IC50 [2] | Papp A→B at 90 min, 10 μM (in vitro) | Papp B→A at 90 min, 10 μM (in vitro) | efflux ratio at 90 min, 10 μM (in vitro)
1 | CO[C@@H]1C[C@H](c2nc3cccc(N4CCN(C)CC4)c3[nH]2)N(C)[C@H](c2ncccc2C)C1 [I-102] | 100 to 1000 nM | 0.01 to 100 nM | 0.1 to 10 ×10⁻⁶ cm/s | 10 to 30 ×10⁻⁶ cm/s | 0.1 to 10
2 | Cc1c(Cl)ccnc1[C@@H]1CCC[C@H](c2nc3cccc(N4CCN(C)CC4)c3[nH]2)N1 [I-140] | 0.01 to 100 nM | 0.01 to 100 nM | 0.1 to 10 ×10⁻⁶ cm/s | 10 to 30 ×10⁻⁶ cm/s | 0.1 to 10
3 | CN1CCN(c2cccc3nc([C@H]4CCC[C@@H](c5ccccn5)N4C)[nH]c23)CC1 [I-29, 2-((2R,6S)-1-methyl-6-(pyridin-2-yl)piperidin-2-yl)-7-(4-methylpiperazin-1-yl)-1H-benzo[d]imidazole] | 100 to 1000 nM | 0.01 to 100 nM | 10 to 30 ×10⁻⁶ cm/s | 10 to 30 ×10⁻⁶ cm/s | 0.1 to 10
4 | CCN1CCC(Cn2c([C@H]3CCC[C@@H](c4ncccc4C)N3C)nc3ccccc32)CC1 [I-22, 1-((1-ethylpiperidin-4-yl)methyl)-2-((2R,6S)-1-methyl-6-(3-methylpyridin-2-yl)piperidin-2-yl)-1H-benzo[d]imidazole] | 0.01 to 100 nM | 0.01 to 100 nM | 0.1 to 10 ×10⁻⁶ cm/s | 10 to 30 ×10⁻⁶ cm/s | 0.1 to 10
5 | CN1CCC(n2c([C@H]3CCC[C@@H](c4ncccc4Cl)N3C)nc3ccccc32)CC1 [I-134] | 0.01 to 100 nM | 0.01 to 100 nM | 10 to 30 ×10⁻⁶ cm/s | 10 to 30 ×10⁻⁶ cm/s | 0.1 to 10
6 | CN1CCN(c2cccc3nc([C@H]4CCC[C@@H](c5nccc6occc56)N4C)[nH]c23)CC1 [I-92] | 100 to 1000 nM | 0.01 to 100 nM | 10 to 30 ×10⁻⁶ cm/s | 10 to 30 ×10⁻⁶ cm/s | 0.1 to 10
7 | Cc1cccnc1[C@@H]1CCC[C@H](c2ncc[nH]2)N1Cc1ccccc1-n1cccn1 [I-166] | ≥ 1000 nM | 100 to 1000 nM | 10 to 30 ×10⁻⁶ cm/s | 10 to 30 ×10⁻⁶ cm/s | 0.1 to 10
8 | Cc1cccnc1[C@@H]1CCC[C@H](c2nc3cccc(OC4CCN(C(C)C)CC4)c3[nH]2)N1C [I-44] | 0.01 to 100 nM | 0.01 to 100 nM | 0.1 to 10 ×10⁻⁶ cm/s | 10 to 30 ×10⁻⁶ cm/s | 0.1 to 10
9 | [2H]C([2H])([2H])N1CCN(c2cccc3nc([C@H]4CCC[C@@H](c5ncccc5C)N4C)[nH]c23)CC1 [I-111] | 0.01 to 100 nM | 0.01 to 100 nM | 10 to 30 ×10⁻⁶ cm/s | 10 to 30 ×10⁻⁶ cm/s | 
10 | CN1CCN(c2cccc3nc([C@H]4CCC[C@@H](c5nccc6ccccc56)N4C)[nH]c23)CC1 [I-88] | 0.01 to 100 nM | 0.01 to 100 nM | 0.1 to 10 ×10⁻⁶ cm/s | 0.1 to 10 ×10⁻⁶ cm/s | 0.1 to 10
11 | CNCCCCn1c([C@H]2CCC[C@@H](c3ncccc3C)N2C)nc2ccccc21 [I-37] | ≥ 1000 nM | 0.01 to 100 nM | 0.1 to 10 ×10⁻⁶ cm/s | 10 to 30 ×10⁻⁶ cm/s | 10 to 30
12 | CCN1[C@@H](c2nc3ccccc3n2CC2CCN(C)CC2)CCC[C@H]1c1ncccc1C [I-25, 2-((2R,6S)-1-ethyl-6-(3-methylpyridin-2-yl)piperidin-2-yl)-1-((1-methylpiperidin-4-yl)methyl)-1H-benzo[d]imidazole] | 0.01 to 100 nM | 0.01 to 100 nM | 0.1 to 10 ×10⁻⁶ cm/s | 10 to 30 ×10⁻⁶ cm/s | 0.1 to 10
